Test results published in patent publication US6852673B2, “Herbicidal pyridine compounds” (BASF Aktiengesellschaft, priority 1998, dated 2005).

Columns and labels:
Type in all cases: in vivo
[1] = tested on: Echinochloa grus galli (ECHCG); experiment: Pre-emergence herbicidal evaluation, barnyard grass
Source text: (§1) The pre-emergence herbicidal activity of the compounds of the present invention is exemplified by the following test in which the seeds of a variety of monocotyledonous and dicotyledonous plants are seperately mixed with potting soil and planted on top of approximately one inch of soil in separate pots. After planting, the pots are sprayed with the selected aqueous acetone solution containing test compound in sufficient quantity to provide the equivalent of about 0.0125 to 0.4 kg per hectare of test compound per pot. The treated pots are then placed on greenhouse benches, watered and cared for in accordance with conventional greenhouse procedures. From 2 to 4 weeks after treatment, the tests are terminated and each pot is examined and rated according to the rating system set forth below.

Oryza sativum (ORYSA) [2] = experiment: Pre-emergence herbicidal evaluation, rice
Source text: as §1

[3] = tested on: Ambrosia artemiisifolia (AMBEL); experiment: Pre-emergence herbicidal evaluation, ragweed
Source text: as §1

[4] = tested on: Ambrosia artemiisifolia (AMBEL); experiment: Post-emergence herbicidal evaluation, ragweed; conditions: rated 2 to 4 weeks after treatment
Method: (§2) [table] [table] […] These acetone solutions are diluted with water and the resulting formulations applied at dosage levels equivalent of about 0.03 to 0.4 kg per hectare of test compound per pot. After spraying the plants are placed on greenhouse benches and are cared for in the usual manner, commensurate with conventional greenhouse practices. From 2 to 4 weeks after treatment, the seedling plants are examined and rated according to the rating system provided above. A rating 0 indicates growth as untreated control, a rating 9 indicates death.

Hordeum vulgare (HORVW) = experiment: Post-emergence herbicidal evaluation, winter barley; conditions: rated 2 to 4 weeks after treatment
Method: as §2

[5] = tested on: Ipomoea hederacea (IPOHE); experiment: Pre-emergence herbicidal evaluation, morning glory
Source text: as §1

Stellaria media (STEME) = experiment: Pre-emergence herbicidal evaluation, chickweed
Source text: as §1

[6] = tested on: Abutilon theophrasti (ABUTH); experiment: Pre-emergence herbicidal evaluation, velvetleaf
Source text: as §1

Glycine max (GLXMA) = experiment: Pre-emergence herbicidal evaluation, soyabeans
Source text: as §1

[7] = tested on: Digitaria sanguinalis (DIGSA); experiment: Post-emergence herbicidal evaluation, large crabgrass; conditions: rated 2 to 4 weeks after treatment
Method: as §2

Galium aparine (GALAP) [8] = experiment: Post-emergence herbicidal evaluation, cleaver; conditions: rated 2 to 4 weeks after treatment
Method: as §2

Lamium purpureum (LAMPU) = experiment: Post-emergence herbicidal evaluation, purple deadnettle; conditions: rated 2 to 4 weeks after treatment
Method: as §2

Galium aparine (GALAP) [9] = experiment: Pre-emergence herbicidal evaluation, cleaver
Source text: as §1

Zea mays (ZEAMX) = experiment: Pre-emergence herbicidal evaluation, maize
Source text: as §1

[10] = tested on: Echinochloa grus galli (ECHCG); experiment: Post-emergence herbicidal evaluation, barnyard grass; conditions: rated 2 to 4 weeks after treatment
Method: as §2

Oryza sativum (ORYSA) [11] = experiment: Post-emergence herbicidal evaluation, rice; conditions: rated 2 to 4 weeks after treatment
Method: as §2

Setaria viridis (SETVI) = experiment: Post-emergence herbicidal evaluation, green foxtail; conditions: for SETVI rating: rated 2 to 4 weeks after treatment
Method: as §2

SMILES: Cc1cc(OCC(F)(F)C(F)(F)F)nc(Oc2cc(C(F)(F)F)nn2C)c1 [Example 7]
- ECHCG rating ([1]; dose 0.1 kg/ha): 4 (4 - Injury)
- ECHCG rating ([1]; dose 0.4 kg/ha): 7 (7 - Good herbicidal effect)
- ORYSA rating (Oryza sativum (ORYSA) [2]; dose 0.013 kg/ha): 0 (0 - No effect)
- ORYSA rating (Oryza sativum (ORYSA) [2]; dose 0.025 kg/ha): 1 (1 - Trace effect)
- ORYSA rating (Oryza sativum (ORYSA) [2]; dose 0.1 kg/ha): 1 (1 - Trace effect)
- ORYSA rating (Oryza sativum (ORYSA) [2]; dose 0.4 kg/ha): 2 (2 - Slight effect)
- AMBEL rating ([3]; dose 0.025 kg/ha): 1 (1 - Trace effect)
- AMBEL rating ([3]; dose 0.1 kg/ha): 6 (6 - Herbicidal effect)
- AMBEL rating ([3]; dose 0.4 kg/ha): 9 (9 - Complete kill)
- AMBEL rating ([4]; dose 0.03 kg/ha): 1 (1 - Trace effect)
- AMBEL rating ([4]; dose 0.1 kg/ha): 2 (2 - Slight effect)
- AMBEL rating ([4]; dose 0.4 kg/ha): 5 (5 - Definite injury)
- HORVW rating (Hordeum vulgare (HORVW); dose 0.03 kg/ha): 2 (2 - Slight effect)
- HORVW rating (Hordeum vulgare (HORVW); dose 0.1 kg/ha): 3 (3 - Moderate effect)
- HORVW rating (Hordeum vulgare (HORVW); dose 0.4 kg/ha): 3 (3 - Moderate effect)
- IPOHE rating ([5]; dose 0.025 kg/ha): 1 (1 - Trace effect)
- IPOHE rating ([5]; dose 0.1 kg/ha): 2 (2 - Slight effect)
- IPOHE rating ([5]; dose 0.4 kg/ha): 5 (5 - Definite injury)
- STEME rating (Stellaria media (STEME); dose 0.025 kg/ha): 5 (5 - Definite injury)
- STEME rating (Stellaria media (STEME); dose 0.1 kg/ha): 7 (7 - Good herbicidal effect)
- STEME rating (Stellaria media (STEME); dose 0.4 kg/ha): 8 (8 - Approaching complete kill)
- ABUTH rating ([6]; dose 0.025 kg/ha): 0 (0 - No effect)
- ABUTH rating ([6]; dose 0.1 kg/ha): 1 (1 - Trace effect)
- ABUTH rating ([6]; dose 0.4 kg/ha): 7 (7 - Good herbicidal effect)
- selectivity in soybeans (Glycine max (GLXMA)): quite selective
- GLXMA rating (Glycine max (GLXMA); dose 0.013 kg/ha): 0 (0 - No effect)
- GLXMA rating (Glycine max (GLXMA); dose 0.025 kg/ha): 0 (0 - No effect)
- GLXMA rating (Glycine max (GLXMA); dose 0.1 kg/ha): 2 (2 - Slight effect)
- GLXMA rating (Glycine max (GLXMA); dose 0.4 kg/ha): 3 (3 - Moderate effect)
- DIGSA rating ([7]; dose 0.03 kg/ha): 2 (2 - Slight effect)
- DIGSA rating ([7]; dose 0.1 kg/ha): 9 (9 - Complete kill)
- DIGSA rating ([7]; dose 0.4 kg/ha): 9 (9 - Complete kill)
- GALAP rating (Galium aparine (GALAP) [8]; dose 0.03 kg/ha): 3 (3 - Moderate effect)
- GALAP rating (Galium aparine (GALAP) [8]; dose 0.1 kg/ha): 5 (5 - Definite injury)
- GALAP rating (Galium aparine (GALAP) [8]; dose 0.4 kg/ha): 5 (5 - Definite injury)
- LAMPU rating (Lamium purpureum (LAMPU); dose 0.03 kg/ha): 0 (0 - No effect)
- LAMPU rating (Lamium purpureum (LAMPU); dose 0.1 kg/ha): 2 (2 - Slight effect)
- LAMPU rating (Lamium purpureum (LAMPU); dose 0.4 kg/ha): 6 (6 - Herbicidal effect)
- GALAP rating (Galium aparine (GALAP) [9]; dose 0.013 kg/ha): 0 (0 - No effect)
- GALAP rating (Galium aparine (GALAP) [9]; dose 0.025 kg/ha): 0 (0 - No effect)
- GALAP rating (Galium aparine (GALAP) [9]; dose 0.1 kg/ha): 1 (1 - Trace effect)
- GALAP rating (Galium aparine (GALAP) [9]; dose 0.4 kg/ha): 2 (2 - Slight effect)
- selectivity in maize (Zea mays (ZEAMX)): good selectivity
- ZEAMX rating (Zea mays (ZEAMX); dose 0.013 kg/ha): 0 (0 - No effect)
- ZEAMX rating (Zea mays (ZEAMX); dose 0.025 kg/ha): 0 (0 - No effect)
- ZEAMX rating (Zea mays (ZEAMX); dose 0.1 kg/ha): 0 (0 - No effect)
- ZEAMX rating (Zea mays (ZEAMX); dose 0.4 kg/ha): 2 (2 - Slight effect)
- ECHCG rating ([10]; dose 0.03 kg/ha): 4 (4 - Injury)
- ECHCG rating ([10]; dose 0.1 kg/ha): 7 (7 - Good herbicidal effect)
- ECHCG rating ([10]; dose 0.4 kg/ha): 7 (7 - Good herbicidal effect)
- ORYSA rating (Oryza sativum (ORYSA) [11]; dose 0.03 kg/ha): 3 (3 - Moderate effect)
- ORYSA rating (Oryza sativum (ORYSA) [11]; dose 0.1 kg/ha): 3 (3 - Moderate effect)
- ORYSA rating (Oryza sativum (ORYSA) [11]; dose 0.4 kg/ha): 3 (3 - Moderate effect)
- SETVI rating (Setaria viridis (SETVI); dose 0.03 kg/ha): 2 (2 - Slight effect)
- SETVI rating (Setaria viridis (SETVI); dose 0.1 kg/ha): 4 (4 - Injury)
- SETVI rating (Setaria viridis (SETVI); dose 0.4 kg/ha): 8 (8 - Approaching complete kill)
- grass control such as Setaria virides (Setaria viridis (SETVI); in barley at crop selective doses): effective
